# Test results as given in patent US20260364181A1, “AKR1C3 Targeted Heterobifunctional Small Molecule Proteolysis Targeting Chimeras” (BOARD OF REGENTS OF THE UNIVERSITY OF NEBRASKA, priority 2022, published 2026).
# T1: AKR1C3 (Homo sapiens, UniProt P42330)
# T1 sequence (P42330 1-323): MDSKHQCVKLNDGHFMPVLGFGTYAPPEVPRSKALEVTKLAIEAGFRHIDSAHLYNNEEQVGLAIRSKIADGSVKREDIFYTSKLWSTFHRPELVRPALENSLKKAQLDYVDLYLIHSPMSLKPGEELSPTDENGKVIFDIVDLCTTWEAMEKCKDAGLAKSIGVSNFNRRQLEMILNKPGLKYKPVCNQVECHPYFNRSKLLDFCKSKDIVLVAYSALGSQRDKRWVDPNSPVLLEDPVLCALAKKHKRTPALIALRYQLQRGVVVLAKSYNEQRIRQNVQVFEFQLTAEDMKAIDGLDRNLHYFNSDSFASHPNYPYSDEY
# T2: AKR1C2 (Homo sapiens, UniProt P52895)
# T2 construct: made in house
# T2 sequence (P52895 1-323): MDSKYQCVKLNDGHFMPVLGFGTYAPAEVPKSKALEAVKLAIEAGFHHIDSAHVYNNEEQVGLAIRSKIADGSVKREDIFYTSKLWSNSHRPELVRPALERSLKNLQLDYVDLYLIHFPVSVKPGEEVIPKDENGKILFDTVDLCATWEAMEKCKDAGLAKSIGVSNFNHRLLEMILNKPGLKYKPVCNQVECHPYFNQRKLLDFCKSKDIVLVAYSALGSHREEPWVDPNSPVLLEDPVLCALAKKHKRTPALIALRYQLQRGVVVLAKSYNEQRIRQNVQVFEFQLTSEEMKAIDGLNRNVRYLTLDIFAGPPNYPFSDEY
# B1: AKR1C2 (Homo sapiens) (protein)
# chain: T2 sequence (P52895 1-323)
# notes: made in house
# What was measured:
# [1] = target: T1, AKR1C3; experiment: AKR1C3 enzyme inhibition (oxidation of S-tetralol); assay type: biochemical; conditions: role: substrate
# Method: (§1) Enzyme Inhibition Assay. (S)-(+)-1,2,3,4-tetrahydro-1-naphthol (S-tetralol) was purchased from Sigma-Aldrich (St. Louis, MO). Nicotinamide adenine dinucleotide (NAD^+) and nicotinamide adenine dinucleotide phosphate (NADP^+) were purchased from Roche Diagnostics (Indianapolis, IN). Homogeneous recombinant enzymes AKR1C1, AKR1C2, AKR1C3 and AKR1C4 were prepared and purified as previously described.^3 The specific activities of AKR1C3 and AKR1C2 for the oxidation of S-tetralol are 2.0 and 1.5 μmol/(min mg), respectively.
# (§2) Assay of Enzyme Activity. The dehydrogenase activities of AKR1C3 and AKR1C2 were determined by measuring the UV absorption of NADH formation at 340 nm using a Beckman DU-640 spectrophotometer. […] After continuously monitoring for 5 min, we recorded the increase in UV absorption using different concentrations of an enzyme to calculate the initial velocity and determine the specific activity of the enzyme.
# (§3) IC50 Value Determination. The inhibitory potency for each compound was represented by IC50 values and measured as described before. The IC50 values of [COMPOUND LEFT OUT] and [COMPOUND LEFT OUT] analogues were determined by measuring their inhibition of the NADP+-dependent oxidation of S-tetralol catalyzed by AKR1C3 or AKR1C2. […]
# [2] = target: T2, AKR1C2; experiment: AKR1C2 enzyme inhibition (oxidation of S-tetralol); assay type: biochemical; conditions: role: substrate; 3.0 mM S-tetralol, 2.3 mM NAD+, 100 mM potassium phosphate pH 7.0, 37 °C
# Method: as §1, §2, §3
# [3] = test system: 22Rv1 prostate cancer cells; experiment: 22Rv1 cell viability (MTS assay); assay type: cell-based; conditions: 72 h
# Method: Cell culture and reagents. 22Rv1 cells were purchased from the American Type Culture Collection (ATCC in 2016) and cultured in RPMI 1640 supplemented with 10% Fetal Bovine Serum (FBS, Fisher Scientific, MT35011CV) and Penicillin-Streptomycin Solution (1%, Fisher Scientific, MT30001Cl) at 37 °C in a humidified incubator with 5% carbon dioxide atmosphere. Stock solutions of E3 ligase ligand, lenalidomide 6 (10 mM), PROTAC 5 (25 mM), and AKR1C3 inhibitor 3 (100 mM) were prepared in DMSO.
# Cell viability assay. Cells were seeded at a density of 10,000 cells/well in a 96-well plate containing 100 μL growth media per well and were incubated at 37 °C in a humidified incubator with 5% carbon dioxide over ~18-24 hours. Cells were treated with 6, 5, and 3 serially diluted at the indicated concentrations limiting the final DMSO concentration to less than 0.1% and incubated at 37 °C for 72 hours. 10 μL of MTS reagent (CellTiter96®Aqueous One Solution Reagent, Promega, G3580) was added to each well and incubated at the above-mentioned conditions for 4 hours. Absorbance was recorded at OD 490 nm on a Synergy LX multi-mode reader and the viability of cells were plotted as percentage of DMSO control.
# [4] = target: T1, AKR1C3; experiment: AKR1C3 protein degradation in 22Rv1 prostate cancer cells (Western blot); assay type: cell-based; design: 22Rv1 prostate cancer cells that express high levels of AKR1C3; host or cells: 22Rv1; conditions: 1 μM and 10 μM; 24 h; in words
# Method: Protein Expression via Western Blot. 22Rv1 cells were seeded in a 6-well plate and incubated overnight. Next day, the cells were treated with varying concentrations of 6 (1 and 10 μM) and 5 (0.5, 1, 10, 50, 100, 250, and 500 nM; 1, 10, and 50 μM) for 24 hours and 5 (1 and 10 nM) at different time points (0, 2, 4, 6, 12, 16, 24, 48, and 72 h). Whole cell lysates were extracted in RIPA lysis buffer containing protease inhibitor and EDTA (Fisher Scientific, PI78440). Protein concentrations in each sample was estimated following BCA assay (Pierce™ BCA protein assay kit, Fisher Scientific, PI23227) as per the manufacturer's protocol. Proteins were standardized using RIPA lysis buffer with Laemelli SDS sample buffer (Thermo Scientific, AAJ61337AC) and heated at 1000C for 15 minutes. The proteins were resolved on a 4-12% premade gel (Invitrogen, NW04120BOX) at 60-90 V in 20× Bolt™ MES SDS running buffer (Fisher Scientific, B000202) and transferred onto a nitrocellulose membrane (Invitrogen, IB23001) using iBlot 2. The membranes were blocked with 2.5% non-fat dry milk (Bio-Rad, 1706404) for 1 h, and the membrane was incubated overnight on a rocking platform at 4 °C with the desired primary antibodies against AKR1C3 (mouse mAb, 1:200, Sigma, A6229), AKR1C1/C2 (rabbit mAb, 1:500, Abcam, ab179448), ARv7 (rabbit mAb, 1:500, Abcam, ab198394) and actin (mouse mAb, 1:1,000, ThermoFisher, MA5-11869). The membranes were washed three times, 10 minutes each, with 1×Tris-buffered saline (TBST, Bio-Rad, 1706435) in 0.1% Tween 20, on a rocking platform wherein they were incubated with rabbit anti-mouse IgG (ThermoFisher, 31450) or goat anti-rabbit IgG (Jackson ImmunoResearch, 111-035-003) secondary antibody (1:1,000) horseradish peroxidase conjugate for 1 hour. The membranes were again washed three times with 1×TBST, upon which they were exposed to LI-COR WesternSure PREMIUM chemiluminescent substrate (Fisher Scientific, 50-489-552) and developed in a dark room with Konica Minolta equipment. Bands were quantified by densitometry using ImageJ software and fold change in AKR1C3, AKR1C1/C2, and ARv7 protein expression was determined based on actin controls. […]
# The AKR1C3 degradation effect of PROTAC 5 was screened across a range of concentrations to identify a suitable treatment protocol. 22Rv1 cells were treated with increasing concentrations of […], DMSO or lenalidomide 6 at 1 μM and 10 μM for 24 hours, and the degradation profile was determined by Western blot analysis with antibody for AKR1C3.
# [5] = substrate: O[C@H]1CCCc2ccccc21; experiment: AKR1C2 enzyme inhibition (oxidation of S-tetralol); assay type: biochemical; conditions: other: role: substrate; NADP+-dependent oxidation; pH 7.0; 37.0 °C
# Method: as §1, §2, §3
molecule,measurement,setting,value
"O[C@H]1CCCc2ccccc21 [S-tetralol, (S)-(+)-1,2,3,4-tetrahydro-1-naphthol]",specific activity of AKR1C3 for oxidation of S-tetralol,"[1]; 3.0 mM S-tetralol, 2.3 mM NAD+, 100 mM potassium phosphate pH 7.0, 37 °C",2.0 µmol/min/mg
same,Km,[1]; NADP+-dependent oxidation,165 µM
same,specific activity of AKR1C2 for oxidation of S-tetralol,[2],1.5 µmol/min/mg
"Nc1cccc2c1CN(C1CCC(=O)NC1=O)C2=O (stereo not shown) [lenalidomide 6, lenalidomide, reference compound]",22Rv1 cell viability activity in words,[3],no activity
same,IC50,"[3]; Homo sapiens, 22Rv1, MTS, mean±standard deviation of two independent experiments",> 100 µM
same,effect on AKR1C3 expression,[4],no effect on AKR1C3 expression
B1,Km,[5],15 µM
